Experimental data from patent publication US20080090749A1 (priority 2005, published 2008).
“And” between values parts separate entries of the source, which are not always exact repeats. Equal values may be shown once.

Tests used:
[1] = system: diarrhea due to stress loading using a stress cage; experiment: Stress loading using a stress cage, histidine bolus oral administration (Example 2), fecal examination; assay type: in vivo, Wistar rats
Procedure: After being preliminarily reared on an ordinary diet (CRF-1, Charles River Japan Inc.) for 1 week, Wistar rats (6 weeks of age, male) received histidine given by gavage at a frequency of twice a day (morning and evening) on day 8 and day 9 after the start of the preliminary rearing. A 5 mL dosing volume of 0.5% methylcellulose solution (control solution) for the control group, or a solution of L-histidine hydrochloride dissolved (partially suspended) in 0.5% methylcellulose solution to a content ratio of 1.5 g per kg body weight of each rat for the histidine dosing group, was orally administered using a sonde. Stress loading was performed using a stress cage in the same manner as Example 1. That is, after each rat was transferred to a small individual cage (13.5×27×12 cm) in the morning of day 10, and allowed to stand for 2 hours, the same histidine solution or control solution as those given on the previous day were once orally administered. After being allowed to stand in a small individual cage for 2 hours, each rat was transferred to a constraint cage (5×17×4 cm) and allowed to stand for 1 hour, whereby stress loading was performed. The feces excreted by the rat were examined for description, number, and weight.
(§1) Eight rats were used for each group.

Serotonin = Serotonin content in the large intestine of stress-loaded rats by LC/MS; assay type: in vivo, Wistar rats
Procedure: (§2) After being preliminarily reared on an ordinary diet (CRF-1, Charles River Japan Inc.) for 1 week, Wistar rats (4 weeks of age, male) were fed an ordinary diet (control group) or a histidine diet prepared by mixing finely milled L-histidine hydrochloride at 2% by weight in the ordinary diet (histidine dosing group) for 2 weeks. In the mornings of day 15, day 16, and day 17 after the start of the rearing with the histidine diet, stress loading was performed by the method described below, and the feces excreted by the rats were examined for weight and description.
(§3) The large intestines of stress-loaded rats were collected and frozen in liquid nitrogen on day 17, and stored at −80° C. until use. Extracted from the frozen samples by the following protocol were noradrenaline, histamine, serotonin and 3-methylhistidine, which were then quantified by LC/MS.
(§4) Each frozen rat tissue (large intestine) stored at −80° C. as disrupted using CryoPress (manufactured by Microtec Co., Ltd.), and 1 mL of methanol per 100 mg at −80° C. was added. The mixture was disrupted using FastPrep (30 sec×2 times), and 0.8 mL of the disruption liquid was recovered. 1 mL of cold chloroform was added thereto, and the mixture was stirred using Vortex for 1 minute, after which 1 mL of cold H2O was added. After the mixture was further stirred using Vortex for 1 minute, it was allowed to stand for 30 minutes. […]

Histamine = Histamine content in the large intestine of stress-loaded rats by LC/MS; assay type: in vivo, Wistar rats
Procedure: as §2, §3, §4

Noradrenaline = Noradrenaline content in the large intestine of stress-loaded rats by LC/MS; assay type: in vivo, Wistar rats; details: Stress+ His diet+; day 17; N = 8
Procedure: as §2, §3, §4

[2] = system: soft feces due to stress loading by front leg constraint; experiment: Stress loading by front leg constraint, histidine oral administration (Example 3), fecal examination; assay type: in vivo, Wistar rats
Procedure: After being preliminarily reared on an ordinary diet (CRF-1, Charles River Japan Inc.) for 1 week, Wistar rats (6 weeks of age, male) received histidine given by gavage at a frequency of twice a day (morning and evening) on day 8 and day 9 as described above. A 5 mL dosing volume of 0.5% methylcellulose solution (control solution) for the control group, or a solution of L-histidine hydrochloride dissolved (partially suspended) in 0.5% methylcellulose solution to a content ratio of 1.5 g per kg body weight of each rat for the histidine dosing group, was orally administered using a sonde.
In the morning of day 10, the same histidine solution or control solution as those given on the previous day was once orally administered. One hour later, under low-dose ether anesthesia, stress loading was performed by constraining the front legs with a tape of the Scotch brand. After each animal was allowed to stand for 1 hour in an individual cage, the feces excreted by the rat were examined for description, number, and weight.
as §1

cholera toxin = details: cited from earlier work
[3] = system: diarrhea under stress loading using a stress cage; experiment: Stress loading using a stress cage, histidine diet (Example 1), fecal examination; assay type: in vivo, Wistar rats; details: for Number of individuals with diarrhea / Number of individuals with soft feces / Number of individuals without diarrhea or soft feces: 8 individuals examined
Procedure: as §2
After being allowed to stand in a small individual cage (13.5×27×12 cm) for about 2 hours, each rat was transferred to a constraint (stress) cage having a size such that the rat cannot move (5×17×4 cm), and further allowed to stand for 2 hours, whereby stress loading was performed (control stress group, histidine dosing stress group). The feces excreted by the rat were examined for description, number, and weight. The stress loading and fecal examination were performed on each individual for three consecutive days.
as §1

[4] = system: ulcerative damage of the intestine; details: reported; cited from earlier work
3-methylhistidine = 3-methylhistidine content in the large intestine of stress-loaded rats by LC/MS (index for proteolysis); assay type: in vivo, Wistar rats
Procedure: as §2, §3, §4

[5] = 8 individuals examined, histidine bolus oral administration
[6] = group mean, 8 rats, 1.5 g per kg oral, stress cage 1 hour
[7] = individual rats, 1.5 g per kg oral, stress cage 1 hour, hydrochloride
[8] = Stress+ His diet+, day 17, N = 8
[9] = individual rats, 1.5 g per kg oral, front leg constraint 1 hour, hydrochloride
[10] = individual rats, 2% L-histidine hydrochloride diet, stress cage, stress day 1, hydrochloride
[11] = individual rats, 2% L-histidine hydrochloride diet, stress cage, stress day 2, hydrochloride
[12] = individual rats, 2% L-histidine hydrochloride diet, stress cage, stress day 3, hydrochloride
[13] = stress loading Day 1, histidine diet
[14] = stress loading Day 2, histidine diet
[15] = stress loading Day 3, histidine diet

## Cl.N[C@@H](Cc1c[nH]cn1)C(=O)O [Histidine, L-histidine hydrochloride]
[1]; [5]
  Number of individuals with diarrhea: 0
  Number of individuals with soft feces: 8
  Number of individuals without diarrhea or soft feces: 0
[1]; bolus oral administration, stress cage, compared to the control group
  effect of histidine administration on diarrhea: suppressive effect
[1]; [6]
  Number of normal feces, Mean: 0.125
  Number of soft feces, Mean: 6
  Total fecal weight, Mean: 1.64 g
[1]; group of 8 rats, 1.5 g per kg oral, stress cage 1 hour
  Onset of diarrhea, individuals in group: 0 individual
[1]; individual rats, 1.5 g per kg oral, stress cage 1 hour
  Onset of diarrhea: none
[1]; [7]
  Number of normal feces: 0 (7×) and 1
  Number of soft feces: 12 and 8 and 3 and 5 and 6 (2×) and 4 (2×)
  Total fecal weight: 2.379 g and 2.7 g and 0.852 g and 2.077 g and 1.515 g and 1.975 g and 0.72 g and 0.94 g
Serotonin; [8]
  Serotonin content in the large intestine (Tissue wet weight): 6.63 nmol/g
Serotonin; histidine diet
  effect on increase of serotonin tissue content in the large intestine due to stress loading: tended to be suppressed
Histamine; [8]
  Histamine content in the large intestine (Tissue wet weight): 6.61 nmol/g
Histamine; histidine diet
  effect on increase of histamine tissue content in the large intestine due to stress loading: tended to be suppressed
Noradrenaline
  Noradrenaline content in the large intestine (Tissue wet weight): 0.96 nmol/g
[2]; Mean line of group, 8 rats
  Onset of diarrhea, group line: 0
[2]; Table 8, front leg constraint
  Mean number of normal feces: 0.88
  Mean number of soft feces: 3.75
[2]; group mean, 8 rats
  Total fecal weight, Mean: 1.68
[2]; group mean, 8 rats, Table 7
  Number of normal feces, Mean: 0.88
  Number of soft feces, Mean: 3.75
[2]; individual rats, 1.5 g per kg oral, front leg constraint 1 hour
  Onset of diarrhea: none
[2]; [9]
  Number of normal feces: 4 and 2 and 0 (5×) and 1
  Number of soft feces: 5 (2×) and 2 (2×) and 0 and 6 (2×) and 4
  Total fecal weight: 2.12 and 0.73 and 1.03 and 0 and 2.18 and 2.47 and 2.63 and 2.31
[2]; oral administration, front leg constraint, compared to the control group
  effect of histidine administration on diarrhea: suppressive effect
Cholera toxin
  action on the gut water secretion by cholera toxin: suppressive action
[3]; histidine diet, stress cage, compared to the control group
  effect of histidine administration on diarrhea: suppressive effect
[3]; individual rats, 2% L-histidine hydrochloride diet 2 weeks, stress cage 2 hours, stress day 1, hydrochloride
  Number of feces Day 1 normal feces: 6 and 3 (2×) and 1 and 11 and 10 and 5 and 0
[3]; [10]
  Fecal weight Total weight Day 1: 1.01 g and 1.65 g and 1.94 g and 2.23 g and 2.82 g and 2.46 g and 1.77 g and 0.00 g
  Number of feces Day 1 diarrhea: 0 (7×) and 1
  Number of feces Day 1 soft feces: 0 (3×) and 1 (2×) and 3 (3×)
[3]; [11]
  Fecal weight Total weight Day 2: 0.58 g and 0.56 g and 4.02 g and 2.38 g and 0.25 g and 3.48 g and 1.28 g and 1.26 g
  Number of feces Day 2 diarrhea: 0 (7×) and 2
  Number of feces Day 2 normal feces: 4 and 2 and 10 and 8 and 3 and 5 and 6 (2×)
  Number of feces Day 2 soft feces: 0 (4×) and 3 and 2 and 5 and 1
[3]; [12]
  Fecal weight Total weight Day 3: 1.15 g and 0.46 g and 3.27 g and 1.00 g and 2.22 g and 3.99 g and 1.64 g and 0.41 g
  Number of feces Day 3 diarrhea: 0 (7×) and 1
  Number of feces Day 3 normal feces: 6 (5×) and 1 and 4 and 3
  Number of feces Day 3 soft feces: 0 (3×) and 1 (2×) and 4 (2×) and 5
[3]; [13]
  Number of individuals with diarrhea: 1
  Number of individuals with soft feces: 5
  Number of individuals without diarrhea or soft feces: 3
[3]; [14]
  Number of individuals with diarrhea: 1
  Number of individuals with soft feces: 4
  Number of individuals without diarrhea or soft feces: 4
[3]; [15]
  Number of individuals with diarrhea: 1
  Number of individuals with soft feces: 5
  Number of individuals without diarrhea or soft feces: 3
[4]
  effect on ulcerative damage of the intestine by infectious microorganisms and drugs: Mitigates
3-methylhistidine; [8]
  3-methylhistidine content in the large intestine (Tissue wet weight): 0.13 nmol/g
3-methylhistidine; histidine diet
  effect on increase of 3-methylhistidine with stress loading: suppressed
